± gives the expanded uncertainty stated by the source.
Assay: wn = mass fraction of the nth substance listed
Details: 101 kPa, Liquid; for electrical conductivity: Alternating current cell with electrodes; for viscosity: Capillary tube (Ostwald / Ubbelohde) method; for mass density: Vibrating tube method

O=c1cc[nH]c(=O)[nH]1 [2,4(1H,3H)-pyrimidinedione] + CC(=O)[O-].CCn1cc[n+](C)c1
Details | electrical conductivity [S/m] | mass density [kg/m3] | viscosity [mPa·s]
298.15 K, w2 = 0 | 0.296 ± 0.006 | 1097.6 ± 0.3 | 128.5 ± 5.5
298.15 K, w2 = 0.0486 | 0.221 ± 0.004 | 1111 ± 0.3 | 190.6 ± 8.7
298.15 K, w2 = 0.1019 | 0.159 ± 0.003 | 1125 ± 0.3 | 294 ± 14
298.15 K, w2 = 0.1471 | 0.11 ± 0.01 | 1135.7 ± 0.3 | 437.6 ± 23
298.15 K, w2 = 0.2029 | 0.0807 ± 0.0016 | 1148.6 ± 0.3 | 682.8 ± 39
298.15 K, w2 = 0.2505 | 0.0585 ± 0.0012 | 1157.9 ± 0.4 | 1010 ± 62
298.15 K, w2 = 0.298 | 0.0388 ± 0.0008 | 1166.8 ± 0.4 | 1589 ± 110
303.15 K, w2 = 0 | 0.382 ± 0.008 | 1094.5 ± 0.3 | 95.23 ± 4
303.15 K, w2 = 0.0486 | 0.293 ± 0.006 | 1107.9 ± 0.3 | 136.6 ± 5.9
303.15 K, w2 = 0.1019 | 0.214 ± 0.004 | 1122 ± 0.3 | 204 ± 9
303.15 K, w2 = 0.1471 | 0.156 ± 0.003 | 1132.5 ± 0.3 | 293.1 ± 14
303.15 K, w2 = 0.2029 | 0.117 ± 0.002 | 1145.2 ± 0.3 | 441.4 ± 23
303.15 K, w2 = 0.2505 | 0.0878 ± 0.0018 | 1154.6 ± 0.4 | 630.8 ± 36
303.15 K, w2 = 0.298 | 0.0602 ± 0.0012 | 1163.7 ± 0.4 | 952.6 ± 58
308.15 K, w2 = 0 | 0.48 ± 0.01 | 1091.4 ± 0.3 | 72.42 ± 2.9
308.15 K, w2 = 0.0486 | 0.38 ± 0.01 | 1104.9 ± 0.3 | 100.9 ± 4.2
308.15 K, w2 = 0.1019 | 0.288 ± 0.006 | 1118.9 ± 0.3 | 146.4 ± 6.4
308.15 K, w2 = 0.1471 | 0.212 ± 0.004 | 1129.3 ± 0.3 | 204.2 ± 9.4
308.15 K, w2 = 0.2029 | 0.163 ± 0.003 | 1141.9 ± 0.3 | 297.8 ± 15
308.15 K, w2 = 0.2505 | 0.125 ± 0.003 | 1151.2 ± 0.3 | 413.1 ± 22
308.15 K, w2 = 0.298 | 0.0892 ± 0.0018 | 1160.5 ± 0.4 | 602.2 ± 34
313.15 K, w2 = 0 | 0.594 ± 0.012 | 1088.4 ± 0.3 | 56.38 ± 2.3
313.15 K, w2 = 0.0486 | 0.48 ± 0.01 | 1101.8 ± 0.3 | 76.6 ± 3.1
313.15 K, w2 = 0.1019 | 0.372 ± 0.007 | 1115.8 ± 0.3 | 108.2 ± 4.6
313.15 K, w2 = 0.1471 | 0.281 ± 0.006 | 1126.2 ± 0.3 | 147.1 ± 6.4
313.15 K, w2 = 0.2029 | 0.221 ± 0.004 | 1138.8 ± 0.3 | 208.6 ± 9.6
313.15 K, w2 = 0.2505 | 0.173 ± 0.004 | 1148 ± 0.3 | 281.8 ± 14
313.15 K, w2 = 0.298 | 0.127 ± 0.003 | 1157.1 ± 0.4 | 398.2 ± 21
318.15 K, w2 = 0 | 0.827 ± 0.017 | 1085.3 ± 0.3 | 44.79 ± 1.8
318.15 K, w2 = 0.0486 | 0.592 ± 0.012 | 1098.8 ± 0.3 | 59.5 ± 2.4
318.15 K, w2 = 0.1019 | 0.469 ± 0.009 | 1112.8 ± 0.3 | 82.2 ± 3.4
318.15 K, w2 = 0.1471 | 0.362 ± 0.007 | 1123.2 ± 0.3 | 109.1 ± 4.6
318.15 K, w2 = 0.2029 | 0.29 ± 0.01 | 1135.7 ± 0.3 | 150.9 ± 6.6
318.15 K, w2 = 0.2505 | 0.233 ± 0.005 | 1144.8 ± 0.3 | 199.2 ± 9.1
318.15 K, w2 = 0.298 | 0.176 ± 0.004 | 1153.9 ± 0.3 | 273.8 ± 13
323.15 K, w2 = 0 | 0.986 ± 0.02 | 1082.3 ± 0.3 | 36.23 ± 1.5
323.15 K, w2 = 0.0486 | 0.718 ± 0.014 | 1095.8 ± 0.3 | 47.16 ± 1.9
323.15 K, w2 = 0.1019 | 0.579 ± 0.012 | 1109.9 ± 0.3 | 63.79 ± 2.6
323.15 K, w2 = 0.1471 | 0.456 ± 0.009 | 1120.2 ± 0.3 | 82.98 ± 3.4
323.15 K, w2 = 0.2029 | 0.371 ± 0.007 | 1132.7 ± 0.3 | 112.2 ± 4.7
323.15 K, w2 = 0.2505 | 0.304 ± 0.006 | 1141.7 ± 0.3 | 145.2 ± 6.3
323.15 K, w2 = 0.298 | 0.233 ± 0.005 | 1150.8 ± 0.3 | 194.8 ± 8.9
328.15 K, w2 = 0 | – | 1079.3 ± 0.3 | 29.78 ± 1.2
328.15 K, w2 = 0.0486 | – | 1092.9 ± 0.3 | 38.06 ± 1.5
328.15 K, w2 = 0.1019 | – | 1106.9 ± 0.3 | 50.53 ± 2
328.15 K, w2 = 0.1471 | – | 1117.1 ± 0.3 | 64.55 ± 2.6
328.15 K, w2 = 0.2029 | – | 1129.6 ± 0.3 | 85.56 ± 3.5
328.15 K, w2 = 0.2505 | – | 1138.7 ± 0.3 | 108.7 ± 4.6
328.15 K, w2 = 0.298 | – | 1147.8 ± 0.3 | 142.7 ± 6.2
333.15 K, w2 = 0 | – | 1076.2 ± 0.3 | 24.82 ± 1
333.15 K, w2 = 0.0486 | – | 1089.9 ± 0.3 | 31.2 ± 1.3
333.15 K, w2 = 0.1019 | – | 1103.9 ± 0.3 | 40.73 ± 1.6
333.15 K, w2 = 0.1471 | – | 1114.1 ± 0.3 | 51.22 ± 2.1
333.15 K, w2 = 0.2029 | – | 1126.6 ± 0.3 | 66.66 ± 2.7
333.15 K, w2 = 0.2505 | – | 1135.7 ± 0.3 | 83.31 ± 3.4
333.15 K, w2 = 0.298 | – | 1144.7 ± 0.3 | 107.3 ± 4.5
338.15 K, w2 = 0 | – | 1073.3 ± 0.3 | 20.95 ± 0.85
338.15 K, w2 = 0.0486 | – | 1086.9 ± 0.3 | 25.94 ± 1.1
338.15 K, w2 = 0.1019 | – | 1100.9 ± 0.3 | 33.34 ± 1.4
338.15 K, w2 = 0.1471 | – | 1111.1 ± 0.3 | 41.34 ± 1.7
338.15 K, w2 = 0.2029 | – | 1123.6 ± 0.3 | 52.92 ± 2.1
338.15 K, w2 = 0.2505 | – | 1132.7 ± 0.3 | 65.2 ± 2.6
338.15 K, w2 = 0.298 | – | 1141.7 ± 0.3 | 82.59 ± 3.4
343.15 K, w2 = 0 | – | 1070.3 ± 0.3 | 17.88 ± 0.72
343.15 K, w2 = 0.0486 | – | 1083.9 ± 0.3 | 21.84 ± 0.88
343.15 K, w2 = 0.1019 | – | 1097.9 ± 0.3 | 27.67 ± 1.1
343.15 K, w2 = 0.1471 | – | 1108.1 ± 0.3 | 33.87 ± 1.4
343.15 K, w2 = 0.2029 | – | 1120.5 ± 0.3 | 42.75 ± 1.7
343.15 K, w2 = 0.2505 | – | 1129.6 ± 0.3 | 51.97 ± 2.1
343.15 K, w2 = 0.298 | – | 1138.7 ± 0.3 | 64.84 ± 2.6

Source: the NIST ThermoML archive (doi:10.1016/j.jct.2012.07.022)
